These results are taken from ChEMBL document CHEMBL1201862, “PubChem BioAssay data set” (2004).

Assay [1] deals with T1, Corticotropin-releasing factor receptor 2/Corticotropin-releasing factor-binding protein (Homo sapiens, UniProt P24387+Q13324).
T1 sequence (Q13324 whole entry): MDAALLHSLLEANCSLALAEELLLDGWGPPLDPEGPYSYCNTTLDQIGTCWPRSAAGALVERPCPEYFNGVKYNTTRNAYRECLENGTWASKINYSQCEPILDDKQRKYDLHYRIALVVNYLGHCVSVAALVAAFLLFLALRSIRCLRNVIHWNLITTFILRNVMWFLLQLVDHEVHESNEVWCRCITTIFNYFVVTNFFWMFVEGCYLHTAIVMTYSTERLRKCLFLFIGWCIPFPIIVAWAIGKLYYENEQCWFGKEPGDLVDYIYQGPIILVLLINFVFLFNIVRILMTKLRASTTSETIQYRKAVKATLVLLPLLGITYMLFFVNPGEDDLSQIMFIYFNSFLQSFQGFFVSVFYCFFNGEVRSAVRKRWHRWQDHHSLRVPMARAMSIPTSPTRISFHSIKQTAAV
T1 sequence (P24387 whole entry): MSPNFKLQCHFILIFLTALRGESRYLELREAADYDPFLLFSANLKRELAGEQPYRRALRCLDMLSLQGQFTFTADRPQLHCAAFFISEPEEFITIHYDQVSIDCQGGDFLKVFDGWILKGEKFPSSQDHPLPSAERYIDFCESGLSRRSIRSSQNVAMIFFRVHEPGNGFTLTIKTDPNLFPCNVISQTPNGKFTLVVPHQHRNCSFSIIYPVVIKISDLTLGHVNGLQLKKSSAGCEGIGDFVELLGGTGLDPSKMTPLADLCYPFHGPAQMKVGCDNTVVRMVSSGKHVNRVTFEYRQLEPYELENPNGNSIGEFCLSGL
As to the kind of experiment: activators of CRF receptor 2 with binding protein – uHTS hits, confirmation (AID 602473). It counts as functional. The conditions noted are these: read-out: EC50_Mean.

Assay [2] addresses T1, Corticotropin-releasing factor receptor 2/Corticotropin-releasing factor-binding protein. Kind of assay: Dose Response confirmation of uHTS hits for small molecule antagonists of the CRF-binding protein and CRF-R2 receptor complex. The conditions noted are these: read-out: IC50_Mean. It counts as functional.
Assay [3] deals with T2, Fatty acid synthase (Homo sapiens, UniProt P49327). As to the kind of experiment: FAS thioesterase domain inhibitors, dose response, biochemical, kinetic fluorescence intensity (AID 624326).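 Also: rate of fluorescence rise from hydrolysis of a fluorogenic O-methyl fluorescein ester substrate.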 It counts as functional.
Assay [4] has as its target T2, Fatty acid synthase. Kind of assay: FAS thioesterase domain inhibitors, dose response, biochemical, endpoint fluorescence intensity, uHTS hits (AID 624327).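 Also: fluorescence from hydrolysis of an O-methyl fluorescein acyl ester substrate by the enzyme.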 It counts as functional.
In the next assay the target is T3, Protein RecA (Mycobacterium tuberculosis, UniProt P9WHJ3).
T3 sequence (P9WHJ3 whole entry): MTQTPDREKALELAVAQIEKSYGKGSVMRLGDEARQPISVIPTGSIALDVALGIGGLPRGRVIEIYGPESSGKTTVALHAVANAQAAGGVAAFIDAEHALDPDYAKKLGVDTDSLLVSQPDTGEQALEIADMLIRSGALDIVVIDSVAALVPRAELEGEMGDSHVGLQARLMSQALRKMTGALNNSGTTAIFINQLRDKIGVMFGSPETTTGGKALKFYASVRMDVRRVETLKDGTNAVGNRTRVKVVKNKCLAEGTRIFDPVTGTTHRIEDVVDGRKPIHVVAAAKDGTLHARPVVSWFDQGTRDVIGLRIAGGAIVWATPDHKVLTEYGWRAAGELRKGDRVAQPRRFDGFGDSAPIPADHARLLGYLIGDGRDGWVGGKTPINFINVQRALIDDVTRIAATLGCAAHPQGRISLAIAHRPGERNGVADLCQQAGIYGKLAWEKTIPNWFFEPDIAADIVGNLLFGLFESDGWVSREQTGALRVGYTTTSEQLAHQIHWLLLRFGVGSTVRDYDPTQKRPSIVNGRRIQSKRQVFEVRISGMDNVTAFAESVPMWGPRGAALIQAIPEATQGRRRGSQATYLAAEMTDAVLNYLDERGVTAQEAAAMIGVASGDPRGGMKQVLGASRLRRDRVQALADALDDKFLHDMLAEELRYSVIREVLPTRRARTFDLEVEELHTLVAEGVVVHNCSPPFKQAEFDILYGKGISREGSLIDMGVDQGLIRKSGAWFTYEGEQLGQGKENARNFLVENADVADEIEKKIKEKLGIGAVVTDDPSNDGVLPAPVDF
Kind of assay: Fluorescence Cell-Free Homogeneous Dose Retest to Identify Inhibitors of RecA-Intein Splicing Activity. [Related pubchem assays (depositor defined):AID2097, AID2223, AID489010, AID492950]. It counts as functional.

The target of assay [5] is T4, Replicative DNA helicase DnaB (Mycobacterium tuberculosis, UniProt P9WMR3).
T4 sequence (P9WMR3 whole entry): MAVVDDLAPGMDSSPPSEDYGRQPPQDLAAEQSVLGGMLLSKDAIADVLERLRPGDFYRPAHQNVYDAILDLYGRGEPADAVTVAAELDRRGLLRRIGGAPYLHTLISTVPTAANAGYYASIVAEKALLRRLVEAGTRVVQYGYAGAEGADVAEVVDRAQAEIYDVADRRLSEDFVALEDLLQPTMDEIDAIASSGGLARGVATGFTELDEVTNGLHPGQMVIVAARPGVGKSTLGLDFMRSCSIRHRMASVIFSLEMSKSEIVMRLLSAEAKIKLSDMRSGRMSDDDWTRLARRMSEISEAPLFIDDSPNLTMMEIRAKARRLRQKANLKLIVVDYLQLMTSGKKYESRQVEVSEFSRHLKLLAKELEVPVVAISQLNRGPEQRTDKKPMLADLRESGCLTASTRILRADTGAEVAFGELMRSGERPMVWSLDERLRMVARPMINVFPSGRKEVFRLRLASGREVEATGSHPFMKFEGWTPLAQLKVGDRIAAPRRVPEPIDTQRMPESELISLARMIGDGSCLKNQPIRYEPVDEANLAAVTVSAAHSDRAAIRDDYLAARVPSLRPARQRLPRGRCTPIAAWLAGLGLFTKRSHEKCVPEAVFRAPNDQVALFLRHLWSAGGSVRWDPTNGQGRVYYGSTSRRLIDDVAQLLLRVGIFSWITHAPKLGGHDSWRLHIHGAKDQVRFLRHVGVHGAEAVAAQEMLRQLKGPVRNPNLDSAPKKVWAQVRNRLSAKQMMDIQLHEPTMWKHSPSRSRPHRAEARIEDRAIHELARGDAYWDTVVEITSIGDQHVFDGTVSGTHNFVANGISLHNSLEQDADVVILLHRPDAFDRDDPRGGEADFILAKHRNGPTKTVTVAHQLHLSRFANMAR
As to the kind of experiment: DnaB intein splicing inhibitors, dose response, biochemical, cell-free fluorescence (AID 449749). It counts as functional.

Another assay concerns the target Cytochrome P450 3A4 (Homo sapiens, UniProt P08684).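 Also: CYP3A4 tested as one member of a cytochrome P450 panel screen.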
Assay [6] in a line: cytotoxicity toward NIH3T3 fibroblasts, dose response, counter-screen, cell-based, ATP luminescence, mouse fibroblasts (AID 2010).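 Also: cells exposed to compound for about 90 hours before reading.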 It counts as functional.
A short description of assay [7]: inhibitors of intracellular T. cruzi replication, confirmation, NIH3T3 host cells, beta-gal luminescence (AID 2044).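 Also: intracellular parasites grown in NIH/3T3 mouse fibroblasts as host cells; luminescent beta-galactosidase reporter signal from transgenic T. cruzi replicating inside host cells; inhibitors lower the luminescence signal.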 It counts as functional, cell-based.
Assay [8] can be described thus: Luminescence Cell-Based Dose Response HTS to Identify Inhibitors of 5'UTR Stem-Loop Driven Prion Protein mRNA Translation in H4 Neuroglioblastoma Cells. [Related pubchem assays: 1827 (Project Summary), 1813 (Primary HTS)]. It counts as functional.
Assay [9] in a line: inhibitors of firefly luciferase expression or activity, dose response, H4 neuroglioma cells, luminescence (AID 1990). It counts as functional, cell-based.
Assay [10] can be described thus: inhibitors of SNCA 5'UTR-driven reporter translation, confirmation, H4 neuroglioma cells, luminescence (AID 1988). It counts as functional, cell-based.

Activity calls are given as the source filed them. Bounds are passed on as bounds.

By AC50 is commonly meant the concentration giving half of the maximal activity seen.

T2 sequence (P49327 whole entry, the tested form may be a part): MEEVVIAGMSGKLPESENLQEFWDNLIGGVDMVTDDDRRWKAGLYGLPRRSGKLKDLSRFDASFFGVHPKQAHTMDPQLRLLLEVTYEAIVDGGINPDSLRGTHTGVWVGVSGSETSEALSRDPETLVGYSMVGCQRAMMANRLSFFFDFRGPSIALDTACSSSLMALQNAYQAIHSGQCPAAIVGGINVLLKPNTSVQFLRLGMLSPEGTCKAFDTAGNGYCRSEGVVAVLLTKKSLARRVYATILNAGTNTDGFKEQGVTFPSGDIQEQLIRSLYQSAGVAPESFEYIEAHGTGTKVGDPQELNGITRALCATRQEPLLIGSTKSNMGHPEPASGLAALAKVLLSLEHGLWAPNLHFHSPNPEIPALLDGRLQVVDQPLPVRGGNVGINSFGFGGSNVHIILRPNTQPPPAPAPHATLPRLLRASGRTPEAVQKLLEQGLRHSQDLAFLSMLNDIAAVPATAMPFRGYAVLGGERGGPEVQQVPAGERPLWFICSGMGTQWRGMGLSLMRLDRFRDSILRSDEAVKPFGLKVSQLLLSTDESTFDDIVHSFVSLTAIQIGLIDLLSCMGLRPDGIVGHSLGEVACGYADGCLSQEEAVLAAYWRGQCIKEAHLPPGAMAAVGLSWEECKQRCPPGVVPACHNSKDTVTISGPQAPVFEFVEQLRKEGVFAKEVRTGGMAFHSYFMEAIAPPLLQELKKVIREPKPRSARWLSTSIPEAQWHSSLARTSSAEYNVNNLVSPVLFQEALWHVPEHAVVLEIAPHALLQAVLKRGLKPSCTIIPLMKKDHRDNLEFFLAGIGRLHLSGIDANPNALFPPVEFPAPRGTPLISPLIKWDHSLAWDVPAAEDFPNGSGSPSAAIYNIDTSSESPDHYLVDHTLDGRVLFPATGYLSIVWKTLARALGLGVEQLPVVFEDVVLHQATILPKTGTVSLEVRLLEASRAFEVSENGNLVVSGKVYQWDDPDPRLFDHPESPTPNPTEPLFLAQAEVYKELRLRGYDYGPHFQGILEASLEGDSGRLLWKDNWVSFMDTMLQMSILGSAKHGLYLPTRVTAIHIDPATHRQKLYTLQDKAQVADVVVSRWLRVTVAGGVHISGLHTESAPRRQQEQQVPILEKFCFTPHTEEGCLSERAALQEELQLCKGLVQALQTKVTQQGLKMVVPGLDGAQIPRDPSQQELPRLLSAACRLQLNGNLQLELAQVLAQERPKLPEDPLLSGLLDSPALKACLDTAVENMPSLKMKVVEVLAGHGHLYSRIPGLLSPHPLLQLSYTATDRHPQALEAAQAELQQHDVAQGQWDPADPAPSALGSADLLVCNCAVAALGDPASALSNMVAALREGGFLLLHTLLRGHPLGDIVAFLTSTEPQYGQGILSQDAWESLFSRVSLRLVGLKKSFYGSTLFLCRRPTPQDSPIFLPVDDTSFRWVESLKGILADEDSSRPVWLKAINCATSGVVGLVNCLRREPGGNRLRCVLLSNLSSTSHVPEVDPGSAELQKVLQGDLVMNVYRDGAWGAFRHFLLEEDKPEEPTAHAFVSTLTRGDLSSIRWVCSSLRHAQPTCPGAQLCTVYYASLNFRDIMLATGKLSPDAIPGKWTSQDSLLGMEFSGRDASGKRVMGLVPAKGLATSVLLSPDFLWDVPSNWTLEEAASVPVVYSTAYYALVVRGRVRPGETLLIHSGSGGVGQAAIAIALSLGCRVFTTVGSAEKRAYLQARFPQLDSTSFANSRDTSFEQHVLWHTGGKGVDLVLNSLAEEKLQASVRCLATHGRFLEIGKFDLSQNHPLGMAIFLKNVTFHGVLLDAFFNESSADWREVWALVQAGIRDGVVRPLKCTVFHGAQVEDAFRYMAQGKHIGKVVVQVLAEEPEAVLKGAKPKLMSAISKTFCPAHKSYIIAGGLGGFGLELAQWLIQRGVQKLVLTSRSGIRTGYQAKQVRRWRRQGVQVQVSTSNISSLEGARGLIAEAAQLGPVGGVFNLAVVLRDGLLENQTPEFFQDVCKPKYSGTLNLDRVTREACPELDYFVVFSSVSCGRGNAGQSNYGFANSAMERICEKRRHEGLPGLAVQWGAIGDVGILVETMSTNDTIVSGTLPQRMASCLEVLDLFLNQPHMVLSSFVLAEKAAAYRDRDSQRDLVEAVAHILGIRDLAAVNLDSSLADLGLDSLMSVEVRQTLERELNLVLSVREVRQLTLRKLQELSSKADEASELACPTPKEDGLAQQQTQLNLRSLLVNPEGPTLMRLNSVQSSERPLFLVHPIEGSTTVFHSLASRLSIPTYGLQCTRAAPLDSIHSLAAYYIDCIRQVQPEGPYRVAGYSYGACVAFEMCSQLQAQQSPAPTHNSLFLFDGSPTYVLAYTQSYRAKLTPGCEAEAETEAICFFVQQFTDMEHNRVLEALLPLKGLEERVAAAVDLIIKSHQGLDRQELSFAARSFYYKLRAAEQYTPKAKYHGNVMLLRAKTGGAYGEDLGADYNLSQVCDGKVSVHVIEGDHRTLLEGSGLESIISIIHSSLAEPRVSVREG
Chain of Cytochrome P450 3A4 (P08684 whole entry): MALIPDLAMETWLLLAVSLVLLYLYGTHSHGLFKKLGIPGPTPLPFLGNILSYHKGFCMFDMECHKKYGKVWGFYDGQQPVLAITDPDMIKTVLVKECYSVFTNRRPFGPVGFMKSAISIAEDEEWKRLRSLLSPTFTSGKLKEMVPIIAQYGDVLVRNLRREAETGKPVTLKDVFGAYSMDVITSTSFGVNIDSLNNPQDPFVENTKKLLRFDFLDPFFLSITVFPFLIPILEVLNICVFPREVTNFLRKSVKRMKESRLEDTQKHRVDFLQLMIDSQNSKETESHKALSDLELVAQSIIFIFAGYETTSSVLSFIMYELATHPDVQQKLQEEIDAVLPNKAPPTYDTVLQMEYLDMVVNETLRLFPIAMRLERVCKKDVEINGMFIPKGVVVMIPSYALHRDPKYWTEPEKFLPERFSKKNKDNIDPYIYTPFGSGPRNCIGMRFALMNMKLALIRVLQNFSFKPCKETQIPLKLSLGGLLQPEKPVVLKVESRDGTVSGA

For the molecule `Cc1c(C(=O)Nc2c(F)cccc2F)sc2ncn(CC(=O)N3CCCCC3)c(=O)c12`, in [1], the EC50 is > 53 µM (inactive). In addition, the IC50 in assay [2] was > 47.1 µM (inactive).

In the case of `O=C(COc1ccc(Cl)cc1Cl)Nc1ccccc1F`, the EC50 in assay [1] is > 53 µM (inactive). Also, in [2], the IC50 is > 47.1 µM (inactive).

With `CC1(C)Cc2ccccc2C(c2cc3ccccc3oc2=O)=N1`, the EC50 in assay [1] was > 53 µM (inactive). The IC50 in assay [2] is > 47.1 µM (inactive).

With `O=C(O)CC(NC(=O)C(c1ccccc1)c1ccccc1)c1cccc([N+](=O)[O-])c1` (stereo unspecified), the IC50 at Fatty acid synthase [3] was 7.4 µM (active); at Fatty acid synthase [4] it was 9.02 µM (active).

Turning to `CN(CC(=O)Nc1ccc(F)cc1)C(=O)COC(=O)c1cc([N+](=O)[O-])ccc1N1CCOCC1`, the IC50 was 7.99 µM (active) at Fatty acid synthase [3] and 6.68 µM (active) on Fatty acid synthase [4].

Regarding `CC(C)(C)c1ccc(C(=O)CS(=O)(=O)c2ccccc2)cc1`, the EC50 in assay [1] is > 53 µM (inactive). Besides, in assay [2], the IC50 was > 47.1 µM (inactive).

Regarding `COc1ccc(C(=O)N/N=C\c2coc3ccc(Cl)cc3c2=O)cc1`, the EC50 on Protein RecA is 19.8 µM (active). In addition, the AC50 in assay [5] is > 120 µM (inactive).

Consider `O=C(Nc1ncc([N+](=O)[O-])s1)c1ccco1`, for which, on Protein RecA, the EC50 is 17.4 µM (active). The AC50 in [5] was 24.2 µM (active).

Turning to `C[C@H](NC(=O)c1[nH]cnc1C(=O)N[C@@H](CCCCNC(=O)OC(C)(C)C)C(=O)OC(C)(C)C)C(=O)OCc1ccccc1`, the figures for the IC50 on Fatty acid synthase [3] and on Fatty acid synthase [4] were 0.176 µM (active) and 0.349 µM (active), respectively.

For `Cc1cc(C)c(C#N)c(SCC(=O)c2ccc(Cl)cc2Cl)n1`, the values for the IC50 at Fatty acid synthase [3] and on Fatty acid synthase [4] were 4.77 µM (active) and 7.15 µM (active), respectively. Also, on Cytochrome P450 3A4, the AC50 was 17.8 µM (inconclusive). Also, the results for the EC50 in [6] and in [7] were > 60 µM (not active) and 0.169 µM (active), respectively.

For the molecule `COc1ccc(C(=O)Nc2cc([N+](=O)[O-])ccc2N2CCCC2)cc1`, the IC50 at Fatty acid synthase [3] was 12.3 µM (active); on Fatty acid synthase [4] it was 15.1 µM (active).

Turning to `CCCOc1ccc(NC(=O)CC2C(=O)N(c3ccc(OCC)cc3)C(=S)N2C2CC2)cc1` (stereo unspecified), the EC50 was > 120 µM (not active) in assay [8], > 120 µM (not active) in [9] and 12.1 µM (active) in assay [10].

Take `CCc1c(C)nc(N)n2c(SCC(=O)Nc3ccccc3OC)nnc12`: the EC50 in assay [8], in assay [9] and in assay [10] was > 120 µM (not active) throughout.

With `O=C(NCCN1C(=O)S/C(=C\c2ccccc2)C1=O)C1CCN(S(=O)(=O)c2cccs2)CC1`, the results for the IC50 at Fatty acid synthase [3] and at Fatty acid synthase [4] were 18.1 µM (active) and 16.2 µM (active), respectively.

As to `COc1ccccc1C(=O)COC(=O)c1c(-c2ccccc2)noc1C`, in assay [1], the EC50 is > 53 µM (inactive). In addition, the IC50 in assay [2] was > 47.1 µM (inactive).

Consider `COc1ccc(N2C(=O)C(Cl)=C(NCc3ccccc3)C2=O)cc1`, for which the EC50 at Protein RecA is 12.9 µM (active). Also, the AC50 in assay [5] is 68.8 µM (active).

With `COc1ccc(CN2CCN(Cc3cccn3-c3ncccn3)CC2CCO)c(C)c1C` (stereo unspecified), the values for the EC50 in assay [8], in assay [9] and in assay [10] were > 120 µM (not active), > 120 µM (not active) and 12.1 µM (active), respectively.

As to `COc1ccc(CNC(=O)C2(c3ccc(Cl)cc3)CC2)cc1`, the EC50 in assay [1] is > 53 µM (inactive). In addition, the IC50 in [2] is > 47.1 µM (inactive).

As for `O=C(Cc1cc(O)n[nH]1)N/N=C/c1ccccc1Cl`, the EC50 on Protein RecA was 1.26 µM (active). Also, in assay [5], the AC50 was 2 µM (active).

For the molecule `OC1=C2C(=Nc3nn(-c4ccccc4)c(O)c3C2c2ccc3c(c2)OCO3)CCC1` (stereo unspecified), the EC50 at Protein RecA is 3.29 µM (active). Moreover, the AC50 in assay [5] was 40.9 µM (active).

For the molecule `CCCN(C(=O)c1cc(Cl)nc2ccccc12)C1CCS(=O)(=O)C1` (stereo unspecified), the EC50 in assay [1] is > 53 µM (inactive). Moreover, the IC50 in assay [2] was > 47.1 µM (inactive).

As for `O=C(CSc1nc2ccccc2n1S(=O)(=O)c1cccc([N+](=O)[O-])c1)NCCc1ccccc1`, the IC50 was 2.4 µM (active) at Fatty acid synthase [3] and 3.67 µM (active) on Fatty acid synthase [4].

`Cc1ccc(C(=O)N/N=C\c2ccccn2)cn1`: the EC50 in assay [1] was > 53 µM (inactive). For the same molecule, the IC50 in assay [2] was > 47.1 µM (inactive).

As to `COc1cccc(CN2CCC(Oc3ccc(C(=O)NCc4ccccn4)cc3)CC2)c1O`, the EC50 in assay [1] was > 53 µM (inactive). Besides, the IC50 in [2] is > 47.1 µM (inactive).

For `CCC(C)[C@H](NC(=O)N1CCCC1)C(=O)O` (stereo partly specified), the EC50 in assay [8], in assay [9] and in assay [10] was > 120 µM (not active) throughout.

For `CCN(CC(=O)Nc1ccc(NC(C)=O)cc1)C(=O)c1ccc(=O)n(C)n1`, the EC50 in assay [1] is > 53 µM (inactive). The IC50 in assay [2] was > 47.1 µM (inactive).

For the molecule `Cc1cccc(N2CCN(C(=O)CC(NC(=O)c3ccccc3)c3ccccc3)CC2C)c1` (stereo unspecified), the EC50 in assay [8], in [9] and in [10] was > 120 µM (not active) in each case.

For the molecule `COc1ccccc1NC(=O)COC(=O)c1cc([N+](=O)[O-])ccc1N1CCCC1`, the IC50 on Fatty acid synthase [3] is 6.41 µM (active); at Fatty acid synthase [4], 5 µM (active).

For `CCC(=O)Nc1c(C)nn(C(=O)CC)c1C`, the EC50 at Protein RecA was > 380 µM (inactive). The AC50 in assay [5] is > 380 µM (inactive).
